Assay results reported in US9061066B2 (priority 2010, dated 2015).

What was measured:
[1] = system: CD8+ OT-I T cells in C57B1/6 Ly5.1 mice; settings: mouse, in vivo, sc
[2] = system: mouse DCs; type: cell-based
[3] = system: mouse DCs; type: cell-based; remark: listed apart in the source

| Substance | OT-I T cell proliferation in the draining lymph node [1] | surface expression of CD80, CD86, CD40 and MHC class II, comparison of cyclic glucan structures [2] | TNF-alpha and IL-12 secretion, comparison of cyclic glucan structures [3] |
| --- | --- | --- | --- |
| Poly I/C | OT-I T cell proliferation | – | – |
| methyl-cyclodextrin [MβCD] | – | failed to significantly activate DC | none of the cytokines were secreted |
